{
  "source": "patent US4276890A",
  "about": "“Tobacco smoking inhibitor” (priority 1979, dated 1981)",
  "key": {"smoking habit of smokers": {"system": "smoking habit of smokers", "test": "Single dose response in smokers (Example 3)", "type": "in vivo, human (volunteer smokers)", "method": "The effect of a single dose of ethyl maltol in the range from 100 mg to 1,200 mg was tested on thirty volunteer subjects who were smokers. As a control, an additional ten smokers were given an inert placebo, a similar candy or gum laced with ascorbic acid and citric acid to impart a medicinal flavor. […] The threshold of effectiveness varied with the individual's age, sex, weight, smoking history, and habits. […] These studies established the existence of a critical threshold dose level below which the effectiveness of ethyl maltol as a tobacco smoking inhibitor was not observed. In subsequent tests where the gamma pyrone was administered in a dose series extending over several days, daily doses of less than about 300 mg per day were similarly ineffective."}, "mice": {"system": "mice", "settings": "cited from earlier work"}, "[1]": {"system": "tobacco consumption of habitual smokers", "test": "General observations of treatment on tobacco consumption and subjective effects", "type": "in vivo, human (test subjects", "description": "In a preferred embodiment, finely divided ethyl maltol is distributed in a chewing gum base, which when chewed by the subject, results in a gradual release of ethyl maltol into the oral cavity. When administered in appropriate amounts over a period of several days, there results a gradual decrease in the number of cigarettes smoked and the length of time they are smoked. […] Reductions in the frequency and quantity of smoking have been observed in test subjects who were unaware that their smoking behavior was monitored. […] Subjectively, test subjects experience a reduced desired to smoke, tend to neglect the opportunities to light up a cigarette and tend to leave cigarettes unsmoked in the ashtray after a few puffs. The effect is sufficiently subtle that a smoker is sometimes unaware that their tobacco consumption rate was decreased until such point as the lowered consumption rate becomes obvious. For smokers sincerely desiring to reduce or eliminate their smoking, the effect of the treatment is most gratifying. However, for smokers who are not psychologically committed to giving up smoking, the effects may be alarming. It is of course, possible to override the effects of the treatment by conscious effort to smoke at the pre-treatment rate.\nSmoking behavior is complex and includes cigarette, pipe and cigar smoking. Both from the standpoint of habituation and of health hazard, cigarette smoking is considered to be the most serious. It is contemplated that the treatment method described herein will be effective to inhibit all forms of smoking behavior and combinations thereof, involving the consumption of tobacco. For convenience, the ensuing discussion focuses on cigarette smoking, as exemplary of smoking behavior in general. Tobacco consumption is a function the number of cigarettes smoked and the proportion of each cigarette smoked. Reduction of consumption is measured by comparison with a smoker's pretreatment consumption rate. All data used herein are expressed as percent reduction, i.e., the differential between pretreatment and current smoking consumption rate divided by the pretreatment rate, times 100. All rates are calculated to take into account both the number of cigarettes smoked and the proportion of each smoked.\nDuration of treatment may be as little as ten days, preferably 20 to 30 days. As might be expected with a complex behavior such as smoking, where psychological and social factors play a major role in addition to individual variations in nicotine susceptibility and responsiveness to gamma pyrone, the rate of smoking reduction during treatment is highly variable. Typically, a gradual reduction to about 50% to the pretreatment rate is observed over the first four to six days. Frequently, little or no reduction is observed for the first two days, although occasionally a dramatic reduction is observed almost immediately. In the ensuing seven to ten days, further reductions, typically 70 to 100%, are observed. Reduction below the 50% level in the first 3-5 days is sometimes accompanied by the physiological (but not psychological) symptoms of nicotine withdrawl, such as vertigo, alimentary distress, diuresis, scotoma and disorientation. Such symptoms have never been observed in non-smoking control subjects using the same gamma pyrone dosages. […] The entire course of treatment is therefore extended somewhat, preferably to about 20 to 30 days total. […]"}, "non-smoker volunteers": {"system": "non-smoker volunteers", "test": "Non-smoker control volunteers on same regimen", "type": "in vivo, human (non-smokers)", "settings": "five non-smokers; in excess of 500 mg per day for several days", "method": "As a control, five non-smoker volunteers were tested according to the same regimen, receiving varying quantities of ethyl maltol in excess of 500 mg. per day for periods of several days."}, "[2]": {"settings": "per day; cited from earlier work"}, "[3]": {"test": "Volatility and storage stability", "type": "physicochemical", "method": "The troches were made essentially by conventional candy making techniques. The polysaccharide and starch were first dry blended to substantial uniformity. About 3-4% by weight of water was added to the dry powder to form a thick paste. This paste was then heated to produce a uniform viscous melt. Maltol or ethyl maltol were added to this melt as saturated solutions in boiling water. The water solubility of the gamma pyrones is somewhat limited. For example, one gram of ethyl maltol requires 6 ml of water at 100° C. to dissolve completely. Since the water content of the mixture must be kept low, the amount of ethyl maltol which can be incorporated is about 3-4%, and preferably about 1% by weight of the troche. […] Alternatively, the entire process can be carried out in a suitable pressure apparatus.\nA refined, bland chewing gum base, obtained from Adams Sour Apple gum, (Warner-Lambert, Inc., Morris Plains, N.J.) was heated to 45° C. in a 100 gram batch. Ethyl maltol, 300 to 400 mesh, 6.66 grams, was added to the chewing gum base with thorough mixing to provide an even distribution of particles throughout the mass. The mass was then rolled into individual 3 gram sticks and allowed to cool. Alternatively, the mass was rolled as a single thin rectangular slab, allowed to cool, then cut into 3 gram sticks. […] Each 3 gram stick contains 200 mg of ethyl maltol."}, "[4]": {"system": "convulsions produced by pentylenetetrazole or strychnine", "settings": "300 to 500 mg per kg; cited from earlier work"}, "rat brain cortex slices": {"system": "rat brain cortex slices", "settings": "in vitro; cited from earlier work"}, "[5]": {"system": "hexobarbital-induced sleeping time", "settings": "300 to 500 mg per kg; cited from earlier work"}},
  "data": [
    {"smiles": "CCc1occc(=O)c1O", "note": "[ethyl maltol, 3-hydroxy-2-ethyl-4-pyrone]", "values": [
      {"measurement": "threshold dose, chewing gum versus tablet", "setting": "smoking habit of smokers; chewing gum over ten to fifteen minutes versus tablet", "value": "somewhat lower"},
      {"measurement": "reaction to cigarettes", "setting": "smoking habit of smokers; single dose greater than 300 mg", "value": "immediate overt negative reaction to cigarettes"},
      {"measurement": "duration of substantially reduced level of smoking", "setting": "smoking habit of smokers; single dose greater than 500 mg", "value": "a few hours to two days"},
      {"measurement": "desire to smoke cigarettes", "setting": "smoking habit of smokers; single dose greater than 500 mg, substantially all individuals", "value": "a definitive result of reduced desire to smoke cigarettes"},
      {"measurement": "effect of dose greater than 1,200 mg", "setting": "smoking habit of smokers; single dose greater than 1,200 mg", "value": "no addition advantage"},
      {"measurement": "effect on smoking", "setting": "smoking habit of smokers; single dose of less than 300 mg", "value": "no definitive effect"},
      {"measurement": "effect of increasing dose", "setting": "smoking habit of smokers; single dose up to about 1,200 mg", "value": "Increased effectiveness"},
      {"measurement": "physiological symptoms of nicotine withdrawal", "setting": "smoking habit of smokers; single dose, some subjects", "value": "For some subjects, physiological symptoms of nicotine withdrawal were noted"},
      {"measurement": "acute LD50", "setting": "mice", "value": 910, "unit": "mg per kg"},
      {"measurement": "tobacco consumption of habitual smokers", "setting": "[1]; appropriate dosage levels and rates", "value": "significantly reduces the tobacco consumption of habitual smokers"},
      {"measurement": "onset of reduced cigarette consumption", "setting": "[1]; day of treatment", "value": "about the second or third day of treatment"},
      {"measurement": "symptoms of nicotine withdrawal", "setting": "[1]; treatment over several days", "value": "does not appear to be accompanied by the typical symptoms of nicotine withdrawal"},
      {"measurement": "psychological or physiological effects", "setting": "non-smoker volunteers", "value": "no psychological or physiological effects"},
      {"measurement": "safe average daily intake", "setting": "[2]", "value": 2, "unit": "mg per kg"},
      {"measurement": "volatility", "setting": "[3]; especially at elevated temperatures", "value": "volatile, especially at elevated temperatures"},
      {"measurement": "storage loss", "setting": "[3]; unwrapped gum, room temperature", "value": "storage loss of ethyl maltol due to sublimation at room temperature"},
      {"measurement": "convulsions produced by pentylenetetrazole or strychnine", "setting": "[4]", "value": "inhibited convulsions"},
      {"measurement": "oxygen intake by rat brain cortex slices", "setting": "rat brain cortex slices", "value": "not affected"},
      {"measurement": "hexobarbital-induced sleeping time", "setting": "[5]", "value": "potentiating hexobarbital-induced sleeping time"}
    ]}
  ]
}
